Experimental data taken from US20250382373A1, “ANTI-EGFR/MET ANTIBODIES AND USES THEREOF” (Biocytogen Pharmaceuticals (Beijing) Co., Ltd., priority 2022, published 2025).

Legend:
HCC827 cells = assay: Internalization of antibodies targeting EGFR and/or MET in HCC827 cells; assay type: cell-based, human; settings: HCC827, 1 hour
Protocol: (§1) Anti-EGFR antibodies, anti-MET antibodies, or anti-EGFR/MET bispecific antibodies, together with the pHAb-Goat anti-human IgG secondary antibody were added to NCI-H1975 cells (ATCC, Reference No.: CRL-5908), HCC827 cells (ATCC, Reference No.: CRL-2868) and NCI-H292 (ATCC, Reference No.: CRL-1848) cells, respectively, and incubated for 1 hour. The cells were centrifuged and washed with FACS buffer. MFI was measured using a flow cytometer. Endocytosis rates of antibodies were calculated. For isotype control (ISO), an antibody targeting an irrelevant target protein was used.

SNU-5 cells = assay: SNU-5 xenograft model (gastric carcinoma) in B-NDG mice; assay type: in vivo; settings: for Tumor volume Day 10: 10 days after grouping; for TGI (%): Day 24; for Tumor volume Day 0: day of grouping; for Tumor volume Day 24: end of experiment; for Survival: surviving/total mice
[1] = test system: patient-derived lung tumor fragments (PDX001); assay: Human lung PDX001 model; assay type: in vivo, B-NDG mice; settings: for TGI (%): Day 23; for Tumor volume Day 0: day of grouping; for Survival: surviving/total mice
[2] = test system: human lung cancer cell line NCI-H1975; assay: In vitro killing activity, IncuCyte; assay type: cell-based
Protocol: Different concentrations of purified antibodies (10 μg/mL, 3.33 μg/mL, 1.11 μg/mL, 0.37 μg/mL, 0.123 μg/mL, 0.041 μg/mL, 0.013 μg/mL, and 0.004 μg/mL) and corresponding ADCs were used to treat human lung cancer cell line NCI-H1975 (5×10^3) cultured in a cell culture plate, and the killing activity was detected after 72 hours of incubation in IncuCyte (Sartorius AG, IncuCyte® S3).

[3] = test system: patient-derived lung tumor fragments (PDX002); assay: Human lung PDX002 model; assay type: in vivo, B-NDG mice; settings: once a week x2; for Tumor volume Day 0: day of grouping; for Survival: surviving/total mice
Protocol: The control group mice were injected with PBS (G1).

NCI-H292 cells [4] = assay: Internalization of antibodies targeting EGFR and/or MET in NCI-H292 cells; assay type: cell-based, human; settings: NCI-H292, 1 hour
Protocol: as §1

[5] = test system: patient-derived pancreatic tumor fragments (PDX003); assay: Human pancreatic PDX003 model; settings: for TGI (%): Day 21; for Tumor volume Day 0: day of grouping; for Survival: surviving/total mice
Protocol: The antibodies were tested for their effect in two human pancreatic PDX (PDX003 and PDX004) models.
In PDX003 model, B-NDG mice were engrafted in the right flank with patient-derived pancreatic tumor fragments (2 mm×2 mm×2 mm). When the tumors in the mice reached a volume of about 300-400 mm^3, the mice were randomly placed into different groups based on the volume of the tumor.

[6] = test system: patient-derived pancreatic tumor fragments (PDX004); assay: Human pancreatic PDX004 model; assay type: in vivo, B-NDG mice; settings: Day 35
Source text: The tested antibody and the frequency of administration was similar to Table 28.

NCI-H292 cells [7] = assay: NCI-H292 xenograft model in B-NDG mice; settings: for Tumor volume Day 14: 14 days after grouping; for Tumor volume Day 14 / Tumor volume Day 0 / Tumor volume Day 24: 1×10^7 NCI-H292 cells, about 300 mm^3 at grouping; for TGI (%): Day 24; for TGI (%) / Survival: 1×10^7 NCI-H292 cells experiment; for Tumor volume Day 0: day of grouping; for Tumor volume Day 24: end of experiment; for Survival: surviving/total mice
Protocol: The antibodies were tested for their effect on tumor growth in vivo in a model of lung carcinoma. About 1×10^7 NCI-H292 cells were injected subcutaneously in B-NDG mice. When the tumor in mice reached a volume of about 300 mm^3, the mice were randomly placed into different groups based on the volume of the tumor. The mice were then injected with PBS or antibodies by intravenous (i.v.) administration. The frequency of administration was once a week (2 administrations in total).

NCI-H1975 cells = assay: NCI-H1975 xenograft model in B-NDG mice; assay type: in vivo; settings: Table 21 study
Protocol: The lengths of the long axis and the short axis of the tumor were measured and the volume of the tumor was calculated as 0.5×(long axis)×(short axis)^2. The tumor growth inhibition (TGI) was calculated using the following formula: TGI (%)=[1−(Ti−T0)/(Vi−V0)]×100. Ti is the average tumor volume in the treatment group on day i. T0 is the average tumor volume in the treatment group on day zero. Vi is the average tumor volume in the control group on day i. V0 is the average tumor volume in the control group on day zero. T-test was performed for statistical analysis. […] P<0.05 is a threshold to indicate significant difference.

Q: What does the source list for “Amivantamab analog: analog of Amivantamab, fully human bispecific antibody targeting EGFR and MET; SEQ ID NOs: 77-80”?
A: MFI (HCC827 cells): 30401; Positive Population (HCC827 cells): 88.90%; Tumor volume Day 10 (SNU-5 cells; 3 mg/kg i.v. QW x2): 294 ± 10 mm^3; TGI (%) (SNU-5 cells; 3 mg/kg i.v. QW x2): 8.4%; Tumor volume Day 0 (SNU-5 cells; 3 mg/kg i.v. QW x2): 200 ± 5 mm^3; Tumor volume Day 24 (SNU-5 cells; 3 mg/kg i.v. QW x2): 1111 ± 64 mm^3; Survival (SNU-5 cells; 3 mg/kg i.v. QW x2): 5/5; Tumor volume Day 10 (SNU-5 cells; 10 mg/kg i.v. QW x2): 72 ± 9 mm^3; TGI (%) (SNU-5 cells; 10 mg/kg i.v. QW x2): 106.4%; Tumor volume Day 0 (SNU-5 cells; 10 mg/kg i.v. QW x2): 200 ± 9 mm^3; Tumor volume Day 24 (SNU-5 cells; 10 mg/kg i.v. QW x2): 136 ± 35 mm^3; Survival (SNU-5 cells; 10 mg/kg i.v. QW x2): 5/5; Tumor volume Day 12 ([1]; 1 mg/kg i.v. QW x2): 1144 ± 86 mm^3; Tumor volume Day 23 ([1]; 1 mg/kg i.v. QW x2): 3077 ± 235 mm^3; TGI (%) ([1]; 1 mg/kg i.v. QW x2): −24.7%; Tumor volume Day 0 ([1]; 1 mg/kg i.v. QW x2): 223 ± 18 mm^3; Survival ([1]; 1 mg/kg i.v. QW x2): 4/6; Tumor volume Day 12 ([1]; 3 mg/kg i.v. QW x2): 1448 ± 195 mm^3; Tumor volume Day 23 ([1]; 3 mg/kg i.v. QW x2): 2465 ± 145 mm^3; TGI (%) ([1]; 3 mg/kg i.v. QW x2): 2.0%; Tumor volume Day 0 ([1]; 3 mg/kg i.v. QW x2): 223 ± 18 mm^3; Survival ([1]; 3 mg/kg i.v. QW x2): 3/6; Tumor volume Day 12 ([1]; 10 mg/kg i.v. QW x2): 1132 ± 77 mm^3; Tumor volume Day 23 ([1]; 10 mg/kg i.v. QW x2): 2666 ± 212 mm^3; TGI (%) ([1]; 10 mg/kg i.v. QW x2): −6.8%; Tumor volume Day 0 ([1]; 10 mg/kg i.v. QW x2): 223 ± 22 mm^3; Survival ([1]; 10 mg/kg i.v. QW x2): 6/6; IC50 ([2]; NCI-H1975, 72 hours): Not detected; ability to kill NCI-H1975 ([2]; highest concentration of 10 μg/m): neither E-6C4-M-2F11 nor Amivantamab analog has the ability to kill; Tumor volume Day 10 ([3]; 1 mg/kg): 805 ± 99 mm^3; Tumor volume Day 21 ([3]; 1 mg/kg): 2279 ± 253 mm^3; Tumor volume Day 0 ([3]; 1 mg/kg): 267 ± 12 mm^3; Survival ([3]; 1 mg/kg): 0/6; Tumor volume Day 10 ([3]; 3 mg/kg): 686 ± 55 mm^3; Tumor volume Day 21 ([3]; 3 mg/kg): 1791 ± 214 mm^3; Tumor volume Day 35 ([3]; 3 mg/kg): 3509 ± 239 mm^3; TGI (%) ([3]; 3 mg/kg, Day 35): −7.1%; Tumor volume Day 0 ([3]; 3 mg/kg): 267 ± 13 mm^3; Survival ([3]; 3 mg/kg): 3/6; MFI (NCI-H292 cells [4]): 13815; Positive Population (NCI-H292 cells [4]): 67.00%; Tumor volume Day 11 ([5]; 1 mg/kg i.v. QW x2): 811 ± 65 mm^3; Tumor volume Day 21 ([5]; 1 mg/kg i.v. QW x2): 1410 ± 130 mm^3; TGI (%) ([5]; 1 mg/kg i.v. QW x2): −2.0%; Tumor volume Day 0 ([5]; 1 mg/kg i.v. QW x2): 340 ± 18 mm^3; Survival ([5]; 1 mg/kg i.v. QW x2): 6/6; Tumor volume Day 11 ([5]; 3 mg/kg i.v. QW x2): 705 ± 62 mm^3; Tumor volume Day 21 ([5]; 3 mg/kg i.v. QW x2): 1216 ± 96 mm^3; TGI (%) ([5]; 3 mg/kg i.v. QW x2): 16.5%; Tumor volume Day 0 ([5]; 3 mg/kg i.v. QW x2): 340 ± 18 mm^3; Survival ([5]; 3 mg/kg i.v. QW x2): 6/6; Tumor volume Day 11 ([5]; 10 mg/kg i.v. QW x2): 666 ± 60 mm^3; Tumor volume Day 21 ([5]; 10 mg/kg i.v. QW x2): 1146 ± 123 mm^3; TGI (%) ([5]; 10 mg/kg i.v. QW x2): 23.2%; Tumor volume Day 0 ([5]; 10 mg/kg i.v. QW x2): 340 ± 16 mm^3; Survival ([5]; 10 mg/kg i.v. QW x2): 6/6; TGI (%) ([6]; 1 mg/kg): −13.3%; TGI (%) ([6]; 3 mg/kg): −0.6%; TGI (%) ([6]; 10 mg/kg): 4.1%; Tumor volume Day 14 (NCI-H292 cells [7]; 1 mg/kg i.v. QW x2): 1338 ± 243 mm^3; TGI (%) (NCI-H292 cells [7]; 1 mg/kg i.v. QW x2): 0.4%; Tumor volume Day 0 (NCI-H292 cells [7]; 1 mg/kg i.v. QW x2): 311 ± 14 mm^3; Tumor volume Day 24 (NCI-H292 cells [7]; 1 mg/kg i.v. QW x2): 2485 ± 536 mm^3; Survival (NCI-H292 cells [7]; 1 mg/kg i.v. QW x2): 4/5; Tumor volume Day 14 (NCI-H292 cells [7]; 3 mg/kg i.v. QW x2): 1380 ± 320 mm^3; TGI (%) (NCI-H292 cells [7]; 3 mg/kg i.v. QW x2): 26.2%; Tumor volume Day 0 (NCI-H292 cells [7]; 3 mg/kg i.v. QW x2): 314 ± 11 mm^3; Tumor volume Day 24 (NCI-H292 cells [7]; 3 mg/kg i.v. QW x2): 1925 ± 389 mm^3; Survival (NCI-H292 cells [7]; 3 mg/kg i.v. QW x2): 4/5; Tumor volume Day 14 (NCI-H292 cells [7]; 10 mg/kg i.v. QW x2): 915 ± 150 mm^3; TGI (%) (NCI-H292 cells [7]; 10 mg/kg i.v. QW x2): 44.5%; Tumor volume Day 0 (NCI-H292 cells [7]; 10 mg/kg i.v. QW x2): 327 ± 11 mm^3; Tumor volume Day 24 (NCI-H292 cells [7]; 10 mg/kg i.v. QW x2): 1538 ± 267 mm^3; Survival (NCI-H292 cells [7]; 10 mg/kg i.v. QW x2): 4/5; Survival (NCI-H1975 cells; 10 mg/kg i.v. QW x2): 5/5; Tumor volume Day 11 (NCI-H1975 cells; 10 mg/kg i.v. QW x2): 143 ± 20 mm^3; Tumor volume Day 21 (NCI-H1975 cells; 10 mg/kg i.v. QW x2): 294 ± 40 mm^3; TGI (%) (NCI-H1975 cells; 10 mg/kg i.v. QW x2, Day 21): 98.4%; Tumor volume Day 0 (NCI-H1975 cells; 10 mg/kg i.v. QW x2, day of grouping): 260 ± 19 mm^3
